The record followed here is US10179777B2, “3-(1H-benzimidazol-2-yl)-1H-pyridin-2-one derivatives” (MERCK PATENT GMBH, priority 2015, dated 2019).

The structures appear in SMILES notation. Where a name gives a salt, the structure may show the parent alone.

For experiment [1], the target named is T1, ALK5 (TGFβR1; GST-modified TGFBR1 (200-503)) (Homo sapiens, UniProt P36897).
T1 construct: Using GST-Modified TGFBR1 (200-503); GST
T1 sequence (P36897 200-503): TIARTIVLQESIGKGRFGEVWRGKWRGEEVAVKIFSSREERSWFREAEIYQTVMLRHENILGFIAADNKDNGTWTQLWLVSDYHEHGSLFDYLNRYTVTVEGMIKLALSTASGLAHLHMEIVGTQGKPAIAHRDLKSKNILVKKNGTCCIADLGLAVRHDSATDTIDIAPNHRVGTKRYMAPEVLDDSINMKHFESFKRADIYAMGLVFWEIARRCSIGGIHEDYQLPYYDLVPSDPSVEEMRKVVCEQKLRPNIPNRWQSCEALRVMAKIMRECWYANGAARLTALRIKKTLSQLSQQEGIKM
Kind of experiment: ALK5 kinase inhibition assay (33P-ATP filter binding, Reaction Biology). Type of experiment: biochemical. The note with it: casein substrate, 200 μM ATP. As to the method:
The protein sequences of the kinases targeted and accompanying information are described in publically available data base http://www.uniprot.org/uniprot/for ALK1 www.uniprot.org/uniprot/P37023, for ALK2 www.uniprot.org/uniprot/Q04771 and for ALK5 www.uniprot.org/uniprot/P36897. IC50 determination of the novel inhibitors described was performed at Reaction Biology Corp., Malvern, Pa., USA, with assay conditions open to public at www.reactionbiology.com/webapps/site/KinaseDetail.aspx?page=Kinases&id=1, and www.reactionbiology.com/webapps/site/Kinase Assay Protocol.aspx. In addition, they were specified previously in Anastassiadis et al. Nat. Biotechnol. 29(11): 1039-1045. doi:10.1038/nbt.2017.
A3) ALK5 Kinase Inhibition Assay Was Performed Similar to Procedures A1 and A2 Using GST-Modified TGFBR1 (200-503) and 1 mg/ml Casein as Substrate at 200 μM ATP.

The subject of experiment [2] is ALK1-mediated SMAD1/5 phosphorylation in HUVEC cells. The experiment can be described thus: Cell-based immunofluorescence assay for ALK1-mediated SMAD1/5 phosphorylation in HUVEC cells. The note with it: Homo sapiens, 1.5 ng/ml BMP-9 with compound for 2 h, % nuclei with pSMAD1/5 signal, read-out: Smad 1/5 IC50. The method, boiled down: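 Serum-starved primary HUVEC (≤5 passages) were treated with compound (1 nM-30 μM, 10 doses, 0.5% DMSO) plus 1.5 ng/ml BMP-9 for 2 h at 37° C. Cells were then fixed and immunostained for phospho-Smad1/5 (Ser463/465), and % positive nuclei were counted by confocal imaging. Data were normalised to DMSO (0%) and 10 μM reference inhibitor (−100%).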

In experiment [3] the target is T2, ALK1 (GST-modified kinase domain ACVRL1 (139-503)) (Homo sapiens, UniProt P37023).
T2 construct: N-terminally GST-modified kinase domain ACVRL1 (139-503); GST (N)
T2 sequence (P37023 139-503): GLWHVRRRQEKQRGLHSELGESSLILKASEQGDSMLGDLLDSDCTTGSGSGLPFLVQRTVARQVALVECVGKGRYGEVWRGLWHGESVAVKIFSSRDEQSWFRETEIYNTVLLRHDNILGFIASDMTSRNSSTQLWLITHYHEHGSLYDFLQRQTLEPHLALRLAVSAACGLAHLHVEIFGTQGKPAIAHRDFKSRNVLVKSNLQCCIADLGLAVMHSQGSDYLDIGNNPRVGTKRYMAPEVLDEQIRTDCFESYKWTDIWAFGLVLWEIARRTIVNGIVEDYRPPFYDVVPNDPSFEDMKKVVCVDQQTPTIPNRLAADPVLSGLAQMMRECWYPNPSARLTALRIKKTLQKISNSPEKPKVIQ
Kind of experiment: ALK1 kinase inhibition assay (33P-ATP filter binding, Reaction Biology). It counts as biochemical. Conditions: casein substrate, 100 μM ATP (Km ATP), 120 min ambient temperature. Summed up:
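GST-tagged kinase domain with 20 mg/ml casein substrate in 20 mM HEPES pH 7.5, 10 mM MgCl2, 1 mM EGTA, 2 mM DTT, 1% DMSO; 120 min at ambient temperature. Phosphorylation read by P81 filter binding; background-subtracted activity as percent of DMSO vehicle, curve-fit for IC50.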

The target of experiment [4] is T3, ALK2 (GST-modified kinase domain ACVR1(145-509)) (Homo sapiens, UniProt Q04771).
T3 construct: N-terminally GST-modified kinase domain ACVR1(145-509); GST (N)
T3 sequence (Q04771 145-509): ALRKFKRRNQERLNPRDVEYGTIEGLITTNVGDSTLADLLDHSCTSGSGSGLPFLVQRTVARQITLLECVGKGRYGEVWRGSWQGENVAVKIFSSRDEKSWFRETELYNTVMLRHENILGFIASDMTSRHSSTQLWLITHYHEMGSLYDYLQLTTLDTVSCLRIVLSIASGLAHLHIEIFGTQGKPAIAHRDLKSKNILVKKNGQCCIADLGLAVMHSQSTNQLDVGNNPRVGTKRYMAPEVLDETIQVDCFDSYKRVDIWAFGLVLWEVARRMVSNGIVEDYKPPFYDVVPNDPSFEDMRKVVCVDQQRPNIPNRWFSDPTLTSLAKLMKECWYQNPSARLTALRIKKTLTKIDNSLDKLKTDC
The experiment can be described thus: ALK2 kinase inhibition assay (33P-ATP filter binding, Reaction Biology). Type of experiment: biochemical. Conditions: casein substrate, 20 μM ATP (Km ATP), 120 min ambient temperature. Summed up: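 Human ACVR1(145-509) kinase domain, N-terminal GST-tagged, with 1 mg/ml casein substrate and 33P-ATP in 20 mM HEPES pH 7.5, 10 mM MgCl2, 1 mM EGTA, 2 mM DTT, 1% DMSO. Incubated 120 min at ambient temperature, then spotted on P81 filters and washed. Background-subtracted activity taken as % of DMSO control; IC50 from curve fit.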

As for `CN(C)C1CCN(c2ccc3[nH]c(-c4cc(-c5cccc(CO)c5)c[nH]c4=O)nc3c2)CC1` [Compound A36, 3-[5-(4-Dimethylamino-piperidin-1-yl)-1H-benzimidazol-2-yl]-5-(3-hydroxymethyl-phenyl)-1H-pyridin-2-one formate], the IC50 in experiment [1] amounted to 1.1 µM; in experiment [2], 0.24 µM; in experiment [3], 0.0029 µM; in experiment [4] it was 0.022 µM.
For `O=c1[nH]cc(-c2ccnc3[nH]ccc23)cc1-c1nc2cc(Oc3ccncc3)ccc2[nH]1` [Compound A40, 3-[5-(Pyridin-4-yloxy)-1H-benzimidazol-2-yl]-5-(1H-pyrrolo[2,3-b]pyridin-4-yl)-1H-pyridin-2-one], in that order: 8.1 µM, 5.2 µM, 0.073 µM and 0.056 µM.
For `O=c1[nH]cc(-c2ccnc3[nH]ccc23)cc1-c1nc2cc(N3CCOCC3)ccc2[nH]1` [Compound A41, 3-(5-Morpholin-4-yl-1H-benzimidazol-2-yl)-5-(1H-pyrrolo[2,3-b]pyridin-4-yl)-1H-pyridin-2-one], in that order: 0.43 µM, 0.19 µM, 0.01 µM and 0.007 µM.
Consider `O=c1[nH]cc(-c2ccnc3[nH]ccc23)cc1-c1nc2cc(N3CCCCC3)ccc2[nH]1` [Compound A43, 3-(5-Piperidin-1-yl-1H-benzimidazol-2-yl)-5-(1H-pyrrolo[2,3-b]pyridin-4-yl)-1H-pyridin-2-one], for which the IC50 in experiment [1] was 0.87 µM; in experiment [2] it was 1.8 µM; in experiment [3], 0.045 µM; in experiment [4] it was 0.037 µM.
For `O=c1[nH]cc(-c2ccnc3[nH]ccc23)cc1-c1nc2cc(N3CCNCC3)ccc2[nH]1` [Compound A44, 3-(5-Piperazin-1-yl-1H-benzimidazol-2-yl)-5-(1H-pyrrolo[2,3-b]pyridin-4-yl)-1H-pyridin-2-one dihydrochloride], in that order: 0.14 µM, 10 µM, 0.004 µM and 0.006 µM.
For `O=c1[nH]cc(-c2cccc3[nH]ccc23)cc1-c1nc2cc(N3CCNCC3)ccc2[nH]1` [Compound A48, 5-(1H-Indol-4-yl)-3-(5-piperazin-1-yl-1H-benzimidazol-2-yl)-1H-pyridin-2-one], in that order: 1.4 µM, 1 µM, 0.017 µM and 0.022 µM.
`Cc1cc2c(-c3c[nH]c(=O)c(-c4nc5cc(N6CCNCC6)ccc5[nH]4)c3)ccnc2[nH]1` [Compound A48a, 5-(2-Methyl-1H-pyrrolo[2,3-b]pyridin-4-yl)-3-(5-piperazin-1-yl-1H-benzimidazol-2-yl)-1H-pyridin-2-one]: the IC50 in experiment [1] turned out to be 0.13 µM; in experiment [2] it was 2.7 µM; in experiment [3], 0.049 µM; in experiment [4] it was 0.044 µM.
For `CN1CCCN(c2ccc3[nH]c(-c4cc(-c5ccnc6[nH]ccc56)c[nH]c4=O)nc3c2)CC1` [Compound A49, 3-[5-(4-Methyl-[1,4]diazepan-1-yl)-1H-benzimidazol-2-yl]-5-(1H-pyrrolo-[2,3-b]pyridin-4-yl)-1H-pyridin-2-one], in that order: 0.28 µM, 3.7 µM, 0.0014 µM and 0.026 µM.
For `CN1CCN(c2ccc3[nH]c(-c4cc(-c5ccnc6[nH]ccc56)c[nH]c4=O)nc3c2)CC1` [Compound A50, 3-[6-(4-Methyl-piperazin-1-yl)-1H-benzimidazol-2-yl]-5-(1H-pyrrolo-[2,3-b]pyridin-4-yl)-1H-pyridin-2-one], in that order: 0.17 µM, 0.4 µM, 0.002 µM and 0.005 µM.
As to `CN1CCN(c2ccc3[nH]c(-c4cc(-c5cnc6[nH]ccc6c5)c[nH]c4=O)nc3c2)CC1` [Compound A51, 3-[6-(4-Methyl-piperazin-1-yl)-1H-benzimidazol-2-yl]-5-(1H-pyrrolo[2,3-b]-pyridin-5-yl)-1H-pyridin-2-one], the IC50 stood at 10 µM in experiment [1], 5.6 µM in experiment [2], 0.12 µM in experiment [3] and 0.1 µM in experiment [4].
As for `Cc1[nH]c2ncccc2c1-c1c[nH]c(=O)c(-c2nc3cc(N4CCN(C)CC4)ccc3[nH]2)c1` [Compound A52, 3-[5-(4-Methyl-piperazin-1-yl)-1H-benzimidazol-2-yl]-5-(2-methyl-1H-pyrrolo-[2,3-b]pyridin-3-yl)-1H-pyridin-2-one], the IC50 in experiment [1] turned out to be 0.48 µM; in experiment [2] it was 2.6 µM; in experiment [3], 0.029 µM; in experiment [4], 0.017 µM.
On to `CN1CCC(Oc2ccc3[nH]c(-c4cc(-c5ccnc6ccccc56)c[nH]c4=O)nc3c2)CC1` [Compound A59, 3-[6-(1-Methyl-piperidin-4-yloxy)-1H-benzimidazol-2-yl]-5-quinolin-4-yl-1H-pyridin-2-one], for which the IC50 in experiment [1] came out at 2.5 µM; in experiment [2], 12 µM; in experiment [3] it was 0.17 µM; in experiment [4], 0.08 µM.
